Earlier results as cited in paper PMC5766898, “Eel Kisspeptins: Identification, Functional Activity, and Inhibition on both Pituitary LH and GnRH Receptor Expression” (Frontiers in Endocrinology, 2018).
“Also recorded” adds a separate entry of the source.

How the values were obtained:
human KissR-1 = tested on: human KissR-1; set-up: method as in PMID 26047834; settings: CHO cells; cited from earlier work
mouse KissR-1 = tested on: mouse KissR-1; set-up: method as in PMID 26047834; settings: CHO cells; cited from earlier work
LH secretion = settings: im injection, prepubertal and adult sea bass; Kp2(10) versus Kp1(10); cited from earlier work
Source text: This paradoxical inhibitory effect contrasts with the general action of kisspeptin as an activator of puberty and reproduction, mostly at the brain level ([70]), but also directly on the pituitary [for reviews see Ref. ([71], [72])]. […] In contrast, in other studied teleosts, the action of kisspeptin is generally ...

[1] = tested on: fshβ expression by eel pituitary cells; settings: eel pituitary cells in primary culture; cited from earlier work
[2] = tested on: lhβ expression by eel pituitary cells; settings: eel pituitary cells in primary culture; cited from earlier work
Source text: In the eel, three Kiss receptor genes have been characterized, i.e., KissR-1, KissR-2, and KissR-3 ([19], [22]–[24]). Their expressions mainly occur in the brain, pituitary, and gonads ([19]).

type II gnrh-r = settings: repeated injections, juvenile female Japanese quail; cited from earlier work
Source text: This receptor is the one increased during experimental maturation in both female and male eels ([25]). To the best of our knowledge, only a single other study investigated the effect of kisspeptin on GnRH receptor in teleost. In female striped bass at dummy run phase (ovarian development is initiated but not completed), chronic administration in vivo of both Kp1(15) and Kp2(12) induces a decrease ...

Sequence | activation of human KissR-1 (human KissR-1) | activation of mouse KissR-1 (mouse KissR-1) | potency in inducing LH secretion (LH secretion) | effect on fshβ expression, heterologous kisspeptins [1] | effect on lhβ expression, heterologous kisspeptins [2] | effect on pituitary expression of type II gnrh-r (type II gnrh-r)
FNFNPFGLRF [sea bass Kp2(10), sea bass Kiss peptide] | can efficiently activate human KissR-1 | not able to induce any activation | significantly more potent than Kp1(10) in inducing LH secretion |  |  | 
YNWNSFGLRF [human/lamprey Kp1(10), heterologous kisspeptin] |  |  |  | no effect on fshβ | can inhibit lhβ expression; also recorded: specific in vitro inhibitory effect | upregulated pituitary expression of type II
